SMILES strings stand for the structures.

T1 sequence (P14902 whole entry): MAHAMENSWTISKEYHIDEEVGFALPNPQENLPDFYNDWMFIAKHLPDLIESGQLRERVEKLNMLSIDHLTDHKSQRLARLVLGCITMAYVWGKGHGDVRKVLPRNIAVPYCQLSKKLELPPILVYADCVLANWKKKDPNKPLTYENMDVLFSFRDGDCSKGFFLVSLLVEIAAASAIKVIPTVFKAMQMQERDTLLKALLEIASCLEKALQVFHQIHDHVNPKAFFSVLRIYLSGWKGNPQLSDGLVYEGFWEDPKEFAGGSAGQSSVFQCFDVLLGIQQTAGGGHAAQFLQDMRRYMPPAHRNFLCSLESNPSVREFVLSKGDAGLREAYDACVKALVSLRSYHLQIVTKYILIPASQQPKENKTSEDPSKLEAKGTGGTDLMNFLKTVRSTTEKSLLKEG

This test has as its target T1, Human IDO1 (Homo sapiens, UniProt P14902).
T1 construct: expressed in transfected cells; host or cells: HEK293
Nature of the test: IDO Kynurenine Assay with Human IDO1/HEK293 Cells. It counts as cell-based. As to conditions: read-out: HEK human IDO-1 (IC50). As for the experimental part: IDO Kynurenine Assay with Human IDO1/HEK293 Cells
Human IDO1/HEK293 cells were seeded at 10,000 cells per 50 uL per well with RPMI/phenol red free media contains 10% FBS in a 384-well black wall clear bottom tissue culture plate (Matrix Technologies LLC) 125 nL of certain concentration of compound was then added to each well using ECHO liquid handling systems. The cells were incubated for 20 hours in 37° C. incubator with 5% CO2.
The compound treatments were stopped by adding Trichloroacetic Acid (Sigma-Aldrich) to a final concentration at 0.2%. The cell plate was further incubated at 50° C. for 30 minute. The equal volume supernatant (20 uL) and 0.2% (w/v) Ehrlich reagent (4-dimethylaminobenzaldehyde, Sigma-Aldrich) in glacial acetic acid were mixed in a new clear bottom 384-well plate. This plate was then incubated at room temperature for 30 minute. The absorbance at 490 nm was measured on Envision plate reader.
Compound IC50 values were calculated using the counts of 500 nM of a reference standard treatment as one hundred percent inhibition, and counts of no compound but DMSO treatment as zero percent inhibition.
On to `Cc1ccc(NC(=O)Nc2cc(-c3cc(F)ccc3C(=O)O)c(F)cc2N(CC(C)C)C2C[C@H]3CC[C@@H]2C3)cc1` (some centres unmarked) [Example 410], for which the 50% inhibitory concentration (IC50) worked out at 50 nM.
Turning to `CC(C)CN(c1cc(F)c(-c2cc(F)ccc2C(=O)O)cc1NC(=O)Nc1ccc(C#N)cc1)C1C[C@H]2CC[C@@H]1C2` (some centres unmarked) [Example 411], the IC50 amounted to 50 nM.
Regarding `CCOc1ccc(NC(=O)Nc2cc(-c3cc(F)ccc3C(=O)O)c(F)cc2N(CC(C)C)C2C[C@H]3CC[C@@H]2C3)cc1` (some centres unmarked) [Example 412], the IC50 came out at 60 nM.
With `Cc1ncc(NC(=O)Nc2cc(-c3cc(F)ccc3C(=O)O)c(F)cc2N(CC(C)C)C2C[C@H]3CC[C@@H]2C3)cn1` (some centres unmarked) [Example 413] the figure was 1960 nM.
Turning to `Cc1ccc(NC(=O)Nc2cc(-c3cc(F)ccc3C(=O)O)ccc2N(CCCC(F)(F)F)C2CCCCC2)cc1` [Example 415], the IC50 stood at 130 nM.
Regarding `Cc1ccc(NC(=O)Nc2cc(-c3ccccc3C(=O)O)ccc2N(CCCC(F)(F)F)C2CCCCC2)cc1` [Example 416], the IC50 worked out at 100 nM.
Consider `C=C(C)CN(CCCC(F)(F)F)c1ccc(-c2ccccc2-c2nnn[nH]2)cc1NC(=O)Nc1ccc(C)cc1` [Example 417], for which the IC50 was 1.89 nM.
Turning to `C=C(C)CN(CCCC(F)(F)F)c1ccc(-c2ccccc2C(=O)O)cc1NC(=O)Nc1ccc(C)cc1` [Example 418], the IC50 came out at 4.63 nM.
In the case of `C=C(C)CN(CCCC(F)(F)F)c1ccc(-c2cc(F)ccc2C(=O)O)cc1NC(=O)Nc1ccc(C)cc1` [Example 419], the IC50 was 5.08 nM.
Take `COC(C)(C)CCN(c1ccc(-c2ccccc2C(=O)O)cc1NC(=O)Nc1ccc(C)cc1)C1CCCCC1` [Example 420]: the IC50 stood at 5250 nM.
On to `COC(C)(C)CCN(c1ccc(-c2cc(F)ccc2C(=O)O)cc1NC(=O)Nc1ccc(C)cc1)C1CCCCC1` [Example 421], for which the IC50 amounted to 3300 nM.
On to `COC(C)(C)CCN(CCCC(F)(F)F)c1ccc(-c2ccccc2C(=O)O)cc1NC(=O)Nc1ccc(C)cc1` [Example 422], for which the IC50 came out at 1480 nM.
For `COC[C@H](C)N(CCCC(F)(F)F)c1ccc(-c2ccccc2-c2nnn[nH]2)cc1NC(=O)Nc1ccc(C)cc1` [Example 423], the IC50 was 20 nM.
For `[2H]C([2H])(C(C)C)N(c1ccc(-c2ccccc2-c2nnn[nH]2)cc1NC(=O)Nc1ccc(C)cc1)C([2H])([2H])C(C)C` [Example 424], the IC50 was 5.27 nM.
In the case of `Cc1ccc(NC(=O)Nc2cc(-c3ccccc3C(=O)O)c(F)cc2N(CC(C)C)CC(C)C)cc1` [Example 425], the IC50 stood at 10 nM.
With `Cc1ccc(NC(=O)Nc2cc(-c3cc(F)ccc3C(=O)O)c(F)cc2N(CC(C)C)CC(C)C)cc1` [Example 426], the IC50 turned out to be 8.85 nM.
For the compound `CC(C)CN(CC(C)C)c1cc(F)c(-c2ccccc2C(=O)O)cc1NC(=O)Nc1ccc(Cl)cc1F` [Example 427], the IC50 was found to be 1.61 nM.
With `CC(C)CN(CC(C)C)c1cc(F)c(-c2cc(F)ccc2C(=O)O)cc1NC(=O)Nc1ccc(Cl)cc1F` [Example 428] the figure was 1.84 nM.
As to `Cc1ccc(NC(=O)Nc2cc(-c3ccccc3-c3nnn[nH]3)c(F)cc2N(CC(C)C)CC(C)C)cc1` [Example 429], the IC50 stood at 5.55 nM.
`CC(C)CN(c1c(F)cc(-c2ccccc2-c2nnn[nH]2)cc1NC(=O)Nc1ccccc1F)C1CCCCC1` [Example 430]: the IC50 amounted to 0.606 nM.
For `CC(C)CN(c1c(F)cc(-c2cc(F)ccc2C(=O)O)cc1NC(=O)Nc1ccccc1F)C1CCCCC1` [Example 431], the IC50 was determined as 3.76 nM.
For `CC(C)CN(c1c(F)cc(-c2ccccc2C(=O)O)cc1NC(=O)Nc1ccccc1F)C1CCCCC1` [Example 432], the IC50 was 1.82 nM.
`Cc1ccc(NC(=O)Nc2cc(-c3ccccc3-c3nnn[nH]3)cc(F)c2N(CC(C)C)C2CCCCC2)cc1` [Example 433]: the IC50 worked out at 1.97 nM.
In the case of `CC(C)CN(c1c(F)cc(-c2cc(F)ccc2C(=O)O)cc1NC(=O)Nc1ccc(Cl)cc1F)C1CCCCC1` [Example 434], the IC50 amounted to 3.7 nM.
Regarding `Cc1ccc(NC(=O)Nc2cc(-c3cc(F)ccc3C(=O)O)cc(F)c2N(CC(C)C)C2CCCCC2)cc1` [Example 435], the IC50 was 3 nM.
With `CC(C)CN(c1c(F)cc(-c2ccccc2-c2nnn[nH]2)cc1NC(=O)Nc1ccc(Cl)cc1F)C1CCCCC1` [Example 436] the figure was 1.16 nM; with `Cc1ccc(NC(=O)Nc2cc(-c3ccccc3C(=O)O)cc(F)c2N(CC(C)C)C2CCCCC2)cc1` [Example 437], 3.13 nM.
`CC(C)CN(c1c(F)cc(-c2ccccc2C(=O)O)cc1NC(=O)Nc1ccc(Cl)cc1F)C1CCCCC1` [Example 438]: the IC50 came to 1.67 nM.
With `CCC(CC)N(CC(C)C)c1ccc(-c2cc(F)ccc2C(=O)O)cc1NC(=O)Nc1ccc(C)cc1` [Example 439] the figure was 10 nM; with `CCC(CC)N(CC(C)C)c1ccc(-c2ccccc2C(=O)O)cc1NC(=O)Nc1ccc(Cl)cc1F` [Example 440], 1.55 nM; with `CCC(CC)N(CC(C)C)c1ccc(-c2ccccc2-c2nnn[nH]2)cc1NC(=O)Nc1ccc(Cl)cc1F` [Example 441], 1.14 nM.
In the case of `CCC(CC)N(CC(C)C)c1ccc(-c2cc(F)ccc2C(=O)O)cc1NC(=O)Nc1ccc(Cl)cc1F` [Example 442], the 50% inhibitory concentration (IC50) is 2.23 nM.
For `CCC(CC)N(CC(C)C)c1ccc(-c2ccccc2C(=O)O)cc1NC(=O)Nc1ccc(C)cc1` [Example 443], the IC50 is 10 nM.
On to `CCC(CC)N(CC(C)C)c1ccc(-c2ccccc2-c2nnn[nH]2)cc1NC(=O)Nc1ccc(C)cc1` [Example 444], for which the IC50 is 3.21 nM.
As to `COCCN(c1ccc(-c2ccccc2C(=O)O)cc1NC(=O)Nc1ccc(C)cc1)C1CCCCC1` [Example 445], the IC50 worked out at 50 nM.
With `COCCN(c1ccc(-c2ccccc2-c2nnn[nH]2)cc1NC(=O)Nc1ccc(C)cc1)C1CCCCC1` [Example 446] the figure was 2.45 nM.
`COCCN(c1ccc(-c2cc(F)ccc2C(=O)O)cc1NC(=O)Nc1ccc(C)cc1)C1CCCCC1` [Example 447]: the IC50 came to 60 nM.
Consider `CCC(CC)N(CC(C)C)c1ccc(-c2ccccc2C(=O)O)cc1NC(=O)Nc1ccccc1F` [Example 448], for which the IC50 came to 1.56 nM.
Regarding `CCC(CC)N(CC(C)C)c1ccc(-c2ccccc2-c2nnn[nH]2)cc1NC(=O)Nc1ccccc1F` [Example 449], the IC50 worked out at 1.41 nM.
Take `CCC(CC)N(CC(C)C)c1ccc(-c2cc(F)ccc2C(=O)O)cc1NC(=O)Nc1ccccc1F` [Example 450]: the IC50 came out at 5.47 nM.
With `COCCN(c1ccc(-c2cc(F)ccc2C(=O)O)cc1NC(=O)Nc1ccc(Cl)cc1F)C1CCCCC1` [Example 451] the figure was 1.74 nM; with `COCCN(c1ccc(-c2ccccc2-c2nnn[nH]2)cc1NC(=O)Nc1ccc(Cl)cc1F)C1CCCCC1` [Example 452], 0.661 nM.
With `CC(C)CN(CC(C)C)c1ccc(-c2ccccc2-c2nnn[nH]2)cc1NC(=O)Nc1ccc(OC(F)F)cc1` [Example 453], the IC50 was determined as 9.9 nM.
Regarding `CCOc1ccc(NC(=O)Nc2cc(-c3ccccc3-c3nnn[nH]3)ccc2N(CC(C)C)CC(C)C)cc1` [Example 454], the 50% inhibitory concentration (IC50) was 2.35 nM.
Turning to `CC(C)CN(CC(C)C)c1ccc(-c2ccccc2-c2nnn[nH]2)cc1NC(=O)Nc1ccc(C(C)C)cc1` [Example 455], the IC50 was 510 nM.
With `COCCN(c1ccc(-c2ccccc2C(=O)O)cc1NC(=O)Nc1ccc(Cl)cc1F)C1CCCCC1` [Example 456] the figure was 0.863 nM; with `CC(C)CN(CC(C)C)c1ccc(-c2ccccc2-c2nnn[nH]2)cc1NC(=O)Nc1ccc(CC#N)cc1` [Example 457], 370 nM; with `CC(C)CN(CC(C)C)c1ccc(-c2ccccc2-c2nnn[nH]2)cc1NC(=O)Nc1ccc2c(c1)CCC2` [Example 458], 140 nM.
On to `CCc1ccc(NC(=O)Nc2cc(-c3ccccc3-c3nnn[nH]3)ccc2N(CC(C)C)CC(C)C)cc1` [Example 459], for which the IC50 was 7.09 nM.
As for `C=C(C)CN(c1ccc(-c2ccccc2C(=O)O)cc1NC(=O)Nc1ccc(C)cc1)C1CCCCC1` [Example 460], the IC50 came to 2.4 nM.
As for `C=C(C)CN(c1ccc(-c2cc(F)ccc2C(=O)O)cc1NC(=O)Nc1ccc(C)cc1)C1CCCCC1` [Example 461], the IC50 came to 4.24 nM.
For the compound `C=C(C)CN(c1ccc(-c2ccccc2-c2nnn[nH]2)cc1NC(=O)Nc1ccc(C)cc1)C1CCCCC1` [Example 462], the IC50 was 1.11 nM.
Take `CC(C)CN(CC(C)C)c1ccc(-c2ccccc2-c2nnn[nH]2)cc1NC(=O)Nc1ccc(N(C)C)cc1` [Example 463]: the IC50 is 20 nM.
Turning to `CC(C)CN(CC(C)C)c1ccc(-c2ccccc2-c2nnn[nH]2)cc1NC(=O)NC1CCCC1` [Example 464], the IC50 is 790 nM.
As to `Cc1ccc(NC(=O)Nc2cc(-c3ccccc3-c3nnn[nH]3)ccc2N(CCOC(C)C)CC(C)C)cc1` [Example 465], the concentration for half-maximal inhibition (IC50) stood at 200 nM.
Take `Cc1ccc(NC(=O)Nc2cc(-c3cc(F)ccc3C(=O)O)ccc2N(CCOC(C)C)CC(C)C)cc1` [Example 466]: the IC50 was found to be 1740 nM.
For the compound `Cc1ccc(NC(=O)Nc2cc(-c3ccccc3-c3nnn[nH]3)ccc2N(CCCC(F)(F)F)C2CCCCC2)cc1` [Example 467], the IC50 was 10 nM.
`[2H]C([2H])(C(C)C)N(c1ccc(-c2cc(F)ccc2C(=O)O)cc1NC(=O)Nc1ccc(C)cc1)C([2H])([2H])C(C)C` [Example 477]: the IC50 came to 7.65 nM.
With `[2H]C([2H])(C(C)C)N(c1ccc(-c2ccccc2C(=O)O)cc1NC(=O)Nc1ccc(C)cc1)C([2H])([2H])C(C)C` [Example 478] the figure was 10 nM.

The values are drawn from patent publication US9758492B2, “IDO inhibitors” (Bristol-Myers Squibb Company, priority 2013, dated 2017).
